Source: BindingDB's records for doi:10.1021/jm960799i (Dupont Pharmaceuticals, 1997)
Several values for one entry are separate records, joined by “and”; a condition that tells them apart may be missing. Identical values can stand only once. Counter-ions that a name gives are not always drawn.

Molecular target: Integrin alpha-IIb/beta-3 (Homo sapiens, UniProt P08514+P05106)
Assay: In vitro inhibition of ADP-induced platelet aggregation in human platelet rich plasma (hPRP)

Sequence of Integrin alpha-IIb/beta-3 (P05106 27-788 limits assumed): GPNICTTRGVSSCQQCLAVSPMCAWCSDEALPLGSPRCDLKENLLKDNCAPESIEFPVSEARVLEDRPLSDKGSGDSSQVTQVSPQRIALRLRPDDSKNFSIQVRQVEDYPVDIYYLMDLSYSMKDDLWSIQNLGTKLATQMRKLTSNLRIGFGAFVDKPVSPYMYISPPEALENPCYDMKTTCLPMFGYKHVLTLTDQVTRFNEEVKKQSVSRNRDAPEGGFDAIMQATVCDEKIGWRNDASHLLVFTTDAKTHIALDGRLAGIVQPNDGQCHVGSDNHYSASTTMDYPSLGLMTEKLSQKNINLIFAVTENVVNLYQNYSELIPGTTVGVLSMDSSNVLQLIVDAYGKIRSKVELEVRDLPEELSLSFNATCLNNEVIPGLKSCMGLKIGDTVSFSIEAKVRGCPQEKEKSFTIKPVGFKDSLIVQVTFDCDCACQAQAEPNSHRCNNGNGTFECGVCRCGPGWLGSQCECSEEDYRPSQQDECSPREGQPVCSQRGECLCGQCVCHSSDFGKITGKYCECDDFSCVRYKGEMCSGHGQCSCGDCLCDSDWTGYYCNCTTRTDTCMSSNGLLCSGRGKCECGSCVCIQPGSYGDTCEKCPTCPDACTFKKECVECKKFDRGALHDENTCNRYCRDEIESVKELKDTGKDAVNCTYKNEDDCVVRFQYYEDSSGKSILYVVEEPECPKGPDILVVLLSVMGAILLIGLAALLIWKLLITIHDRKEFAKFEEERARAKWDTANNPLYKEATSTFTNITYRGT
Sequence of Integrin alpha-IIb/beta-3 (P08514 32-887 limits assumed): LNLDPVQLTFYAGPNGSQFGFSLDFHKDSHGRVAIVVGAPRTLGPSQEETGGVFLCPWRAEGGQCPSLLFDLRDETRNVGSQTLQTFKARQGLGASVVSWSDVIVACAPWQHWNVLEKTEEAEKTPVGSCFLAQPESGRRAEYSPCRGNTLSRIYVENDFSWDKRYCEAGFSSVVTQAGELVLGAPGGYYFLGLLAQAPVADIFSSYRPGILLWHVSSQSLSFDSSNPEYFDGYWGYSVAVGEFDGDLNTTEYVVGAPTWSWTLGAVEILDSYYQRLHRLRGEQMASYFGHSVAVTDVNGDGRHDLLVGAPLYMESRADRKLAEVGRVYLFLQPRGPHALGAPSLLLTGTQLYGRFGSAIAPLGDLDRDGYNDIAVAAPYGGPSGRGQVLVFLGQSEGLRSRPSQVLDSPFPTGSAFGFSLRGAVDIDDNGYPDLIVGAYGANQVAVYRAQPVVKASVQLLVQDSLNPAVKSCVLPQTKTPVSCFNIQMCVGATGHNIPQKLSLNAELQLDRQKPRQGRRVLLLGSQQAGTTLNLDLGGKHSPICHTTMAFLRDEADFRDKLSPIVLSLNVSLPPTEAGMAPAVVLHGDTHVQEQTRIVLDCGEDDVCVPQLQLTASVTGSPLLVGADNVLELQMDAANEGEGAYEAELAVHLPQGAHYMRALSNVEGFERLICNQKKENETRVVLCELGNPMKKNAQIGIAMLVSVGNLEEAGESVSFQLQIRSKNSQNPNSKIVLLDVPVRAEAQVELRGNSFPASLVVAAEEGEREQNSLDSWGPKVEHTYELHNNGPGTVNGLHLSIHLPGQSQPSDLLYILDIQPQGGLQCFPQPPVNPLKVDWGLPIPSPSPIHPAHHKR
Sequence of Integrin alpha-IIb/beta-3 (P08514 891-1039 limits assumed): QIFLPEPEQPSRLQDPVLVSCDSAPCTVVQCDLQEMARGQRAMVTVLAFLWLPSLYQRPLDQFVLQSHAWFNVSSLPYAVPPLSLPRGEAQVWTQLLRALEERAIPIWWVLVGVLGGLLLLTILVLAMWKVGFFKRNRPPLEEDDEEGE

SMILES	IC50
N=C(N)c1ccc(C2=NO[C@@H](CC(=O)NCCC(=O)O)C2)cc1	60 nM
N=C(N)c1ccc(C2=NOC(CC(=O)N[C@@H](CC(=O)O)C(=O)N3CCc4ccccc4C3)C2)cc1 (stereo not given in full)	170 nM
COC(=O)CC(CN(C)C)NC(=O)CC1CC(c2ccc(C(=N)N)cc2)=NO1 (stereo not given) [3-{2-[3-(4-Carbamimidoyl-phenyl)-4,5-dihydro-isoxazol-5-yl]-acetylamino}-4-dimethylamino-butyric acid methyl ester; TFA]	2700 nM
N=C(N)c1ccc(C2=NOC(CC(=O)NC(CC(=O)O)CC(=O)O)C2)cc1 (stereo not given) [3-{2-[3-(4-Carbamimidoyl-phenyl)-4,5-dihydro-isoxazol-5-yl]-acetylamino}-pentanedioic acid; TFA]	210 nM
CCCCOC(=O)N[C@H](CNC(=O)C[C@H]1CC(c2ccc(C(=N)N)cc2)=NO1)C(=O)O [(R)-2-Butoxycarbonylamino-3-{2-[(R)-3-(4-carbamimidoyl-phenyl)-4,5-dihydro-isoxazol-5-yl]-acetylamino}-propionic acid; hydrochloride]	27 nM
CCCCOC(=O)N[C@H](CNC(=O)C[C@@H]1CC(c2ccc(C(=N)N)cc2)=NO1)C(=O)O [(R)-2-Butoxycarbonylamino-3-{2-[(S)-3-(4-carbamimidoyl-phenyl)-4,5-dihydro-isoxazol-5-yl]-acetylamino}-propionic acid; hydrochloride]	100 nM
COC(=O)C[C@H](CN(C)C)NC(=O)CC1CC(c2ccc(C(=N)N)cc2)=NO1 (stereo partly drawn) [(R)-3-{2-[3-(4-Carbamimidoyl-phenyl)-4,5-dihydro-isoxazol-5-yl]-acetylamino}-4-dimethylamino-butyric acid methyl ester; TFA]	7000 nM
N=C(N)c1ccc(C2=NOC(CC(=O)N[C@@H](CC(=O)O)Cc3ccccc3)C2)cc1 (stereo partly drawn) [(R)-3-{2-[3-(4-Carbamimidoyl-phenyl)-4,5-dihydro-isoxazol-5-yl]-acetylamino}-4-phenyl-butyric acid; TFA]	78 nM
COC(=O)C[C@H](CN1CCCC1)NC(=O)CC1CC(c2ccc(C(=N)N)cc2)=NO1 (stereo partly drawn) [(R)-3-{2-[3-(4-Carbamimidoyl-phenyl)-4,5-dihydro-isoxazol-5-yl]-acetylamino}-4-pyrrolidin-1-yl-butyric acid methyl ester; TFA]	3300 nM
COC(=O)C[C@@H](CC(C)C)NC(=O)CC1CC(c2ccc(C(=N)N)cc2)=NO1 (stereo partly drawn) [(R)-3-{2-[3-(4-Carbamimidoyl-phenyl)-4,5-dihydro-isoxazol-5-yl]-acetylamino}-5-methyl-hexanoic acid methyl ester; TFA]	50 nM
N=C(N)c1ccc(C2=NOC(CC(=O)N[C@H](CCc3ccccn3)CC(=O)O)C2)cc1 (stereo partly drawn) [(R)-3-{2-[3-(4-Carbamimidoyl-phenyl)-4,5-dihydro-isoxazol-5-yl]-acetylamino}-5-pyridin-2-yl-pentanoic acid; TFA]	180 nM
N=C(N)c1ccc(C2=NOC(CC(=O)N[C@H](CCc3cccnc3)CC(=O)O)C2)cc1 (stereo partly drawn) [(R)-3-{2-[3-(4-Carbamimidoyl-phenyl)-4,5-dihydro-isoxazol-5-yl]-acetylamino}-5-pyridin-3-yl-pentanoic acid; TFA]	360 nM
N=C(N)c1ccc(C2=NOC(CC(=O)N[C@H](CCc3ccncc3)CC(=O)O)C2)cc1 (stereo partly drawn) [(R)-3-{2-[3-(4-Carbamimidoyl-phenyl)-4,5-dihydro-isoxazol-5-yl]-acetylamino}-5-pyridin-4-yl-pentanoic acid; TFA]	500 nM
CC[C@H](CC(=O)O)NC(=O)C[C@H]1CC(c2ccc(C(=N)N)cc2)=NO1 [(R)-3-{2-[(R)-3-(4-Carbamimidoyl-phenyl)-4,5-dihydro-isoxazol-5-yl]-acetylamino}-pentanoic acid; TFA]	54 nM
N=C(N)c1ccc(C2=NOC(CC(=O)NC[C@H](NC(=O)NCc3ccccc3)C(=O)O)C2)cc1 (stereo partly drawn) [(S)-2-(3-Benzyl-ureido)-3-{2-[3-(4-carbamimidoyl-phenyl)-4,5-dihydro-isoxazol-5-yl]-acetylamino}-propionic acid; TFA]	67 nM
N=C(N)c1ccc(C2=NOC(CC(=O)NC[C@H](NC(=O)OCc3ccc(Br)cc3)C(=O)O)C2)cc1 (stereo partly drawn) [(S)-2-(4-Bromo-benzyloxycarbonylamino)-3-{2-[3-(4-carbamimidoyl-phenyl)-4,5-dihydro-isoxazol-5-yl]-acetylamino}-propionic acid; TFA]	44 nM
CN(C[C@@H](C(=O)O)N(C)C(=O)OCc1ccccc1)C(=O)CC1CC(c2ccc(C(=N)N)cc2)=NO1 (stereo partly drawn) [(S)-2-(Benzyloxycarbonyl-methyl-amino)-3-({2-[3-(4-carbamimidoyl-phenyl)-4,5-dihydro-isoxazol-5-yl]-acetyl}-methyl-amino)-propionic acid; TFA]	570 nM
CCCCS(=O)(=O)N[C@@H](CNC(=O)CC1CC(c2ccc(C(=N)N)cc2)=NO1)C(=O)O (stereo partly drawn) [(S)-2-(Butane-1-sulfonylamino)-3-{2-[3-(4-carbamimidoyl-phenyl)-4,5-dihydro-isoxazol-5-yl]-acetylamino}-propionic acid; TFA]	31 nM

SMILES	IC50
N=C(N)c1ccc(C2=NOC(CC(=O)NC[C@H](N)C(=O)O)C2)cc1 (stereo partly drawn) [(S)-2-Amino-3-{2-[3-(4-carbamimidoyl-phenyl)-4,5-dihydro-isoxazol-5-yl]-acetylamino}-propionic acid; TFA]	91 nM
COC(=O)[C@H](CN(C)C(=O)CC1CC(c2ccc(C(=N)N)cc2)=NO1)NC(=O)OCc1ccccc1 (stereo partly drawn) [(S)-2-Benzyloxycarbonylamino-3-({2-[3-(4-carbamimidoyl-phenyl)-4,5-dihydro-isoxazol-5-yl]-acetyl}-methyl-amino)-propionic acid methyl ester; TFA]	160 nM
O=C(CC1CC(CCC2CCNCC2)=NO1)NC[C@H](NC(=O)OCc1ccccc1)C(=O)O (stereo partly drawn) [(S)-2-Benzyloxycarbonylamino-3-{2-[3-(2-piperidin-4-yl-ethyl)-4,5-dihydro-isoxazol-5-yl]-acetylamino}-propionic acid; TFA]	210 nM
C=CCCOC(=O)N[C@@H](CNC(=O)CC1CC(c2ccc(C(=N)N)cc2)=NO1)C(=O)O (stereo partly drawn) [(S)-2-But-3-enyloxycarbonylamino-3-{2-[3-(4-carbamimidoyl-phenyl)-4,5-dihydro-isoxazol-5-yl]-acetylamino}-propionic acid; TFA]	44 nM
CCCCOC(=O)N[C@@H](CN(C)C(=O)CC1CC(c2ccc(C(=N)N)cc2)=NO1)C(=O)O (stereo partly drawn) [(S)-2-Butoxycarbonylamino-3-({2-[3-(4-carbamimidoyl-phenyl)-4,5-dihydro-isoxazol-5-yl]-acetyl}-methyl-amino)-propionic acid; TFA]	200 nM
CCCCOC(=O)N[C@@H](CNC(=O)CC1CC(C2CCNCC2)=NO1)C(=O)O (stereo partly drawn) [(S)-2-Butoxycarbonylamino-3-[2-(3-piperidin-4-yl-4,5-dihydro-isoxazol-5-yl)-acetylamino]-propionic acid; TFA]	6300 nM
CCCCOC(=O)N[C@@H](CNC(=O)CC1CC(CC2CCNCC2)=NO1)C(=O)O (stereo partly drawn) [(S)-2-Butoxycarbonylamino-3-[2-(3-piperidin-4-ylmethyl-4,5-dihydro-isoxazol-5-yl)-acetylamino]-propionic acid; TFA]	10000 nM
CCCCOC(=O)N[C@@H](CNC(=O)CC1CC(CCC2CCNCC2)=NO1)C(=O)O (stereo partly drawn) [(S)-2-Butoxycarbonylamino-3-{2-[3-(2-piperidin-4-yl-ethyl)-4,5-dihydro-isoxazol-5-yl]-acetylamino}-propionic acid; TFA]	180 nM
CCCCOC(=O)N[C@@H](CNC(=O)CC1CC(CCCC2CCNCC2)=NO1)C(=O)O (stereo partly drawn) [(S)-2-Butoxycarbonylamino-3-{2-[3-(3-piperidin-4-yl-propyl)-4,5-dihydro-isoxazol-5-yl]-acetylamino}-propionic acid; TFA]	180 nM
CCCCOC(=O)N[C@@H](CNC(=O)CC1CC(c2ccc(C(=N)N)cc2F)=NO1)C(=O)O (stereo partly drawn) [(S)-2-Butoxycarbonylamino-3-{2-[3-(4-carbamimidoyl-2-fluoro-phenyl)-4,5-dihydro-isoxazol-5-yl]-acetylamino}-propionic acid]	73 nM
CCCCOC(=O)N[C@@H](CNC(=O)CC1CC(c2ccc(C(=N)N)cc2)=NO1)C(=O)OC (stereo partly drawn) [(S)-2-Butoxycarbonylamino-3-{2-[3-(4-carbamimidoyl-phenyl)-4,5-dihydro-isoxazol-5-yl]-acetylamino}-propionic acid methyl ester; hydrochloride]	30 nM
CCCCOC(=O)N[C@@H](CNC(=O)CC1CC(c2ccc(C(=N)N)cc2)=NO1)C(=O)O (stereo partly drawn) [(S)-2-Butoxycarbonylamino-3-{2-[3-(4-carbamimidoyl-phenyl)-4,5-dihydro-isoxazol-5-yl]-acetylamino}-propionic acid; TFA]	75 nM and 42 nM
CCCCOC(=O)N[C@@H](CNC(=O)CC1CC(c2ccc(N=C(N)N)cc2)=NO1)C(=O)O (stereo partly drawn) [(S)-2-Butoxycarbonylamino-3-{2-[3-(4-guanidino-phenyl)-4,5-dihydro-isoxazol-5-yl]-acetylamino}-propionic acid]	88 nM
N=C(N)c1ccc(C2=NOC(CC(=O)NC[C@H](NC(=O)c3ccc(-c4ccccc4)cc3)C(=O)O)C2)cc1 (stereo partly drawn) [(S)-2-[(Biphenyl-4-carbonyl)-amino]-3-{2-[3-(4-carbamimidoyl-phenyl)-4,5-dihydro-isoxazol-5-yl]-acetylamino}-propionic acid; TFA]	67 nM
N=C(N)c1ccc(C2=NOC(CC(=O)NC[C@H](NC(=O)OCc3ccccc3Cl)C(=O)O)C2)cc1 (stereo partly drawn) [(S)-3-{2-[3-(4-Carbamimidoyl-phenyl)-4,5-dihydro-isoxazol-5-yl]-acetylamino}-2-(2-chloro-benzyloxycarbonylamino)-propionic acid; TFA]	32 nM
N=C(N)c1ccc(C2=NOC(CC(=O)NC[C@H](NC(=O)OCCC3CCCC3)C(=O)O)C2)cc1 (stereo partly drawn) [(S)-3-{2-[3-(4-Carbamimidoyl-phenyl)-4,5-dihydro-isoxazol-5-yl]-acetylamino}-2-(2-cyclopentyl-ethoxycarbonylamino)-propionic acid; TFA]	32 nM
N=C(N)c1ccc(C2=NOC(CC(=O)NC[C@H](NC(=O)OCCC3CC3)C(=O)O)C2)cc1 (stereo partly drawn) [(S)-3-{2-[3-(4-Carbamimidoyl-phenyl)-4,5-dihydro-isoxazol-5-yl]-acetylamino}-2-(2-cyclopropyl-ethoxycarbonylamino)-propionic acid; TFA]	36 nM
